From patent US7645762B2, “Substituted pyrazolo[1,5-a] pyrimidines as protein kinase inhibitors” (Schering Corporation, priority 2005, dated 2010)

Molecular target: T1, CDK2 (Homo sapiens, UniProt P24941)
T1 construct: The expressed protein was approximately 34 kDa in size; made in house; host or cells: SF9 insect cells (baculovirus, pFASTBAC)
Experiment: CDK2 in vitro kinase assay (SPA, 33P-ATP, biotinylated Histone H1 peptide)
Assay type: biochemical
Details: recombinant cyclin A or E-dependent CDK2 from baculovirus/SF9 cells; 1 hour at room temperature; 8 point dilutions in duplicate

SMILES	IC50
Nc1cc2nc(-c3ccccc3)cc(N)n2n1	0.08 µM
Nc1nn2c(N)cc(-c3ccccc3)nc2c1Br	4.67 µM
